Data on one compound can be found in publication PMC8449129, “Single tracer-based protocol for broad-spectrum kinase profiling in live cells with NanoBRET” (STAR Protocols, 2021).

Assay in all cases: cell-based
Set-up in all cases: NanoBRET live-cell target engagement; % occupancy from displacement of tracer K10 on NanoLuc-kinase fusions, mean n=3
What all share (settings): HEK293, read-out: % inhibition
(BRET reads energy transfer from a luciferase to a nearby fluorophore.)

Test [1] concerns the target WEE2 (Homo sapiens, UniProt P0C1S8). The method, boiled down: (§1)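 Live-cell NanoBRET target engagement: cells expressing kinase–NanoLuc fusion with tracer treated with compound 2 h at 37 °C, 5% CO2. BRET read from donor (450 nm) and acceptor (610/630 nm) emission with 20 μM extracellular NanoLuc inhibitor; % occupancy calculated relative to tracer+DMSO and zero-BRET controls.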

Test [2] concerns the target LATS2 (Homo sapiens, UniProt Q9NRM7). The method, boiled down: as §1
In test [3] the target is FGFR3 (Homo sapiens, UniProt P22607). A digest of the protocol:
as §1

Test [4] has as its target TNK2 (Homo sapiens, UniProt Q07912). A digest of the protocol: as §1
The target of test [5] is LCK (Homo sapiens, UniProt P06239). A digest of the protocol: as §1
Test [6] deals with CDK5 (Homo sapiens, UniProt Q00535). A digest of the protocol:
as §1

The target of test [7] is TEK (Homo sapiens, UniProt Q02763). A digest of the protocol:
as §1

The target in test [8] is CDK9 (Homo sapiens, UniProt P50750). The method, boiled down: as §1
Sequence of CDK9 (P50750 whole entry): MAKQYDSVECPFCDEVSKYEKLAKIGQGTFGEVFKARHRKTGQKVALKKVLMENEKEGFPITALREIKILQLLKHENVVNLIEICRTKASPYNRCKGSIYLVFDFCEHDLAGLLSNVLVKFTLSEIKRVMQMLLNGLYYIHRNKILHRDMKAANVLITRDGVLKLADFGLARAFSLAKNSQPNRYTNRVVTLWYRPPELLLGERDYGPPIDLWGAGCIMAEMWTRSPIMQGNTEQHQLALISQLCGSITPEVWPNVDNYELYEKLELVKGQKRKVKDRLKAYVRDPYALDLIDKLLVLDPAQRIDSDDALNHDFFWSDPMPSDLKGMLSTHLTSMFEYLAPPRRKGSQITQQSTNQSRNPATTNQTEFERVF
The target of test [9] is AAK1 (Homo sapiens, UniProt Q2M2I8). A digest of the protocol: as §1
Test [10] addresses STK32B (Homo sapiens, UniProt Q9NY57). A digest of the protocol:
as §1

In test [11] the target is STK38 (Homo sapiens, UniProt Q15208). The method, boiled down:
as §1

In test [12] the target is PRKACA (Homo sapiens, UniProt P17612). The method, boiled down:
as §1

For test [13], the target named is STK11 (Homo sapiens, UniProt Q15831). A digest of the protocol: as §1
Sequence of STK11 (Q15831 whole entry): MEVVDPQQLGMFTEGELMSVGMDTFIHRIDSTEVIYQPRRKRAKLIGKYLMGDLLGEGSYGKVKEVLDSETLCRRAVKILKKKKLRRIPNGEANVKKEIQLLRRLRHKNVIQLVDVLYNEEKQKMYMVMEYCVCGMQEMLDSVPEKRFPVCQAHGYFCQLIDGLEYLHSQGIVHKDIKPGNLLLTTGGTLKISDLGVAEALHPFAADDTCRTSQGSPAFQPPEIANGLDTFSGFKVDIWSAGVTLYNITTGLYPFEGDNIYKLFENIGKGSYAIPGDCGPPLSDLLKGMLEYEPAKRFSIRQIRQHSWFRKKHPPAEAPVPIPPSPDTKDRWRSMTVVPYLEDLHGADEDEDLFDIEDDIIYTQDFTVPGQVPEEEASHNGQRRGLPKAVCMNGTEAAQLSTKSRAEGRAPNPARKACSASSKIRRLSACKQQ
Test [14] concerns the target FGFR2 (Homo sapiens, UniProt P21802). A digest of the protocol:
as §1

Test [15] has as its target MAP3K11 (Homo sapiens, UniProt Q16584). The method, boiled down:
as §1

For test [16], the target named is RPS6KA6 (Homo sapiens, UniProt Q9UK32). The method, boiled down:
as §1

The target in test [17] is MAP4K1 (Homo sapiens, UniProt Q92918). A digest of the protocol:
as §1

The target of test [18] is T1, MLTK (Homo sapiens, UniProt Q9NYL2).
T1 construct: gene MAP3K20
The method, boiled down:
as §1

Sequence of WEE2 (P0C1S8 whole entry, the tested form may be a part): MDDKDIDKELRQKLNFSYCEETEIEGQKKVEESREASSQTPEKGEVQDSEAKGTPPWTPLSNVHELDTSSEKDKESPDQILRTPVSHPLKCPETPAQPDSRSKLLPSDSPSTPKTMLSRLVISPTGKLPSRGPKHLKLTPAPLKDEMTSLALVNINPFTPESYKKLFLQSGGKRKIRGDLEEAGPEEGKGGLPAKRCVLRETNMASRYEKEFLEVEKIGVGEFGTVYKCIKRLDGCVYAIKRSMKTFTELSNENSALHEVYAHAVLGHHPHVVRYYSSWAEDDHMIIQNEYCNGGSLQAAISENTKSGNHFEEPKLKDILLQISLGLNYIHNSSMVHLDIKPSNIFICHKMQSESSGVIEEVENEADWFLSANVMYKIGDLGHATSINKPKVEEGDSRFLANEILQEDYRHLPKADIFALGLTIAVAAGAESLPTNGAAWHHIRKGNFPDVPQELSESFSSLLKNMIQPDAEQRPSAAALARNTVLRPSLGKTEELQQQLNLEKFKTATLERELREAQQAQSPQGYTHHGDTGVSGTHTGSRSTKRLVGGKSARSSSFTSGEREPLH
Sequence of FGFR3 (P22607 whole entry): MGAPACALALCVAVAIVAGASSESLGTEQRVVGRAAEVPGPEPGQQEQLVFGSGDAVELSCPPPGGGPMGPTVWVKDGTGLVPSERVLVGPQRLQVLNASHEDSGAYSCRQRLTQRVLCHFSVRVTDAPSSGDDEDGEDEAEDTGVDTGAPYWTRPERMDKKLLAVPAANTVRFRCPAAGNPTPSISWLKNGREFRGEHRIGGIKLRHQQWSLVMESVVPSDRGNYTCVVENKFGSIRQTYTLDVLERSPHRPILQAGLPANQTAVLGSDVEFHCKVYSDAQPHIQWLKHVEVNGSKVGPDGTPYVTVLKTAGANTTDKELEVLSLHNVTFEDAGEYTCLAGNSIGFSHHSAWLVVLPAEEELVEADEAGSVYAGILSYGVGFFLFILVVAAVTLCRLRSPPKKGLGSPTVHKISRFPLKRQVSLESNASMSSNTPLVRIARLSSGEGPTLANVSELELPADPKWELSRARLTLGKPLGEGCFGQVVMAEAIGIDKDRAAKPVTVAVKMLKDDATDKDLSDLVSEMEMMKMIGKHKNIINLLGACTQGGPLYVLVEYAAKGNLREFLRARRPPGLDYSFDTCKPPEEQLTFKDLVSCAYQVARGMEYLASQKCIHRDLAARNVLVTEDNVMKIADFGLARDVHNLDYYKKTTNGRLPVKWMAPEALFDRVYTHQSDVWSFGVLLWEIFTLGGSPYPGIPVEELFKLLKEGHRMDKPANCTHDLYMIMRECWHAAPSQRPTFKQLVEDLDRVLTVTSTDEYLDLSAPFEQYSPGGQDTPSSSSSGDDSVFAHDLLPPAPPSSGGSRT
Sequence of RPS6KA6 (Q9UK32 whole entry): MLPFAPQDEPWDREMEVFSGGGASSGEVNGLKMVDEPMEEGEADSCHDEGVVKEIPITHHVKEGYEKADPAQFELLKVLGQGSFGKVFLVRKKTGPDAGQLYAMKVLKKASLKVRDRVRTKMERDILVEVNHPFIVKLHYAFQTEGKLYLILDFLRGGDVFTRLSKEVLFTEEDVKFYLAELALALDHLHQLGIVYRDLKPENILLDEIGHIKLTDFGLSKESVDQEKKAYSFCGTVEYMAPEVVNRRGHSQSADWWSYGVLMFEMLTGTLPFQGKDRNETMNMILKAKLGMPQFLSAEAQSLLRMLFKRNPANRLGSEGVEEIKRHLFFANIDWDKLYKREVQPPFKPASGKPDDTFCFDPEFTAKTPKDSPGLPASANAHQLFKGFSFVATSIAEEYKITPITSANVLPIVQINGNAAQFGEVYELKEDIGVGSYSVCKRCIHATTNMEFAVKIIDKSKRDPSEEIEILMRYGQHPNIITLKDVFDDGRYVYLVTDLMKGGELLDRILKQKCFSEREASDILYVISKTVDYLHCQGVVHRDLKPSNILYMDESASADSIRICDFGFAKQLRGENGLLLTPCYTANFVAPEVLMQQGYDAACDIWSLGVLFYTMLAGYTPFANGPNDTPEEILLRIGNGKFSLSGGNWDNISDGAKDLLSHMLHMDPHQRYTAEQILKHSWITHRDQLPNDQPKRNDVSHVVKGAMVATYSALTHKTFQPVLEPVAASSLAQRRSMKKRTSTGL
Sequence of STK32B (Q9NY57 whole entry): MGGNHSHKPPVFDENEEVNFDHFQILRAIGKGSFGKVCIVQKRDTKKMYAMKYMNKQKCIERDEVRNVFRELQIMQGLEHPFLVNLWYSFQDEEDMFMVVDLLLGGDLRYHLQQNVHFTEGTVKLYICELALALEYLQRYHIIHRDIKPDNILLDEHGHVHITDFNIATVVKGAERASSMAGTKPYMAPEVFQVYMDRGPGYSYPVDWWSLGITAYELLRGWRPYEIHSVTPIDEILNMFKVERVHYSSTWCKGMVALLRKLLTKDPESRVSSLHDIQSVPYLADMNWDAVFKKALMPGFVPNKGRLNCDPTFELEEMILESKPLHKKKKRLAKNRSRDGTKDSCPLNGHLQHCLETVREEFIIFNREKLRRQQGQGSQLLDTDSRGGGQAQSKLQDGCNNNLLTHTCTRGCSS
Sequence of CDK5 (Q00535 whole entry): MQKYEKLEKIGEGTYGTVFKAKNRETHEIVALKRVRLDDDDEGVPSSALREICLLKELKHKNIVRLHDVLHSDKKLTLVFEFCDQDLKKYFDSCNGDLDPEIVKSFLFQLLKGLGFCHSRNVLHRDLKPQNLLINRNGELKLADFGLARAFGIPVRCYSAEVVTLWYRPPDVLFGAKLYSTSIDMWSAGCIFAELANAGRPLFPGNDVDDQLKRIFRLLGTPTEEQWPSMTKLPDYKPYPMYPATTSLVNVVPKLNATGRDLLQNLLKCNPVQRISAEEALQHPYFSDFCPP
Sequence of STK38 (Q15208 whole entry): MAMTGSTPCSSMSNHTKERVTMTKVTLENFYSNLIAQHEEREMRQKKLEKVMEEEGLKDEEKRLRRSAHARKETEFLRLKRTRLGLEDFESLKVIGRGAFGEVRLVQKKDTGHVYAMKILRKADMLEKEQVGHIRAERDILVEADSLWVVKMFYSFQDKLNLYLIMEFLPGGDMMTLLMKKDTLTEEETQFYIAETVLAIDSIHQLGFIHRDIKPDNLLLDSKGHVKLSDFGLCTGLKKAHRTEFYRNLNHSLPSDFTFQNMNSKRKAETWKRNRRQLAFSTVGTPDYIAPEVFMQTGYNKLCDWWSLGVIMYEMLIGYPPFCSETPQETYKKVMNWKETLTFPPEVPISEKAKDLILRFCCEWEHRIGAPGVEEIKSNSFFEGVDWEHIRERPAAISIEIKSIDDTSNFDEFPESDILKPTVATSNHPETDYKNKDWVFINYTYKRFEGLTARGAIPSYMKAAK
Sequence of MAP3K11 (Q16584 whole entry): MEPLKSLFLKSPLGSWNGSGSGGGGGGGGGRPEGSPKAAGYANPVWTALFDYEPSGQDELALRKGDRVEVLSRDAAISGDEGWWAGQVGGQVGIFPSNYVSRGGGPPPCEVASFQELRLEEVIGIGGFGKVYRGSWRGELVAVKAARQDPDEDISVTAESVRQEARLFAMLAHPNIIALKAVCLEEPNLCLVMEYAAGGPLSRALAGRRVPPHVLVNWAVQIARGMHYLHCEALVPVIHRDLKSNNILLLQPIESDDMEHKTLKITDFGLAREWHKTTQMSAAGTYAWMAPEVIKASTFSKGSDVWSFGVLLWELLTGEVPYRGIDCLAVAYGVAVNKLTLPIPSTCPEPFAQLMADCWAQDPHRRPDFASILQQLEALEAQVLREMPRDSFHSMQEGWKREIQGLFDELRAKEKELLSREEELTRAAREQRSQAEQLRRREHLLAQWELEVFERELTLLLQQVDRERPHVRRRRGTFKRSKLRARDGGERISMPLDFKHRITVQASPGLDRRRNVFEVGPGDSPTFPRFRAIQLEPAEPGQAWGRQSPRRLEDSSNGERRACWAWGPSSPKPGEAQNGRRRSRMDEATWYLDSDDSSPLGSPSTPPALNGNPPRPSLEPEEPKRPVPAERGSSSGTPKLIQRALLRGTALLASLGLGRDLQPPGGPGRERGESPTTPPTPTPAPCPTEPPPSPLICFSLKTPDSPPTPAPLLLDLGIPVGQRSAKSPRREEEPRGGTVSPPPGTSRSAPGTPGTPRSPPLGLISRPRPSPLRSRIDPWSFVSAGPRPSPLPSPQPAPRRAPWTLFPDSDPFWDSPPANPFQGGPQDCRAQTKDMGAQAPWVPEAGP

Consider `C[C@@H](Oc1cc(-c2cnn(C3CCNCC3)c2)cnc1N)c1c(Cl)ccc(F)c1Cl` [crizotinib], for which the inhibition at 1 µM in test [1] is -4%; in test [2], -10%; in [3], 14%; in test [4], 13%; in test [5], 36%; in test [6], 1%. In addition, the inhibition at 1 µM in test [7] was 37%; in test [8], 4%; in test [9], -14%; in test [10], -1%; in [11], 1%; in [12], -1%. Further, the inhibition at 1 µM in test [13] is -1%; in [14], 10%; in test [15], 0%; in test [16] it was -10%; in test [17], 14%; in test [18], -3%.

Usually inhibition stands for the drop in the measured response relative to a control, in per cent.
